Patent US20250092088A1, “PEPTIDE COMPOUND PRODUCTION METHOD” (CHUBU UNIVERSITY EDUCATIONAL FOUNDATION, priority 2022, published 2025)

Test: TLC analysis of H-Ala-O-PG to evaluate polarity reduction by protecting groups
Type: physicochemical
Settings: hexane/ethyl acetate=2/1, L-Ala with terminal carboxyl protected by PG (H-Ala-O-PG)
Excerpt: As protecting groups for the terminal carboxyl groups of amino acid/peptide compounds, the silicon-containing hydrophobic substituents TAG1(Si), TAG2(Si), and TAG3(Si) synthesized in Examples 1 to 3, the conventionally known protecting group tBu group, and the previously mentioned TAGa group (alkoxybenzyl ester group) represented by the following formula, which is described in Non-Patent Literature 6 (Org. Process Res. Dev. 2019, Vol. 23, p. 2576-2581), were used to protect the terminal carboxyl of an amino acid (L-Ala), and their effects on polarity reduction were evaluated.

- Rf value: 0.07
Structure (SMILES): C[C@H](N)C(=O)OC(C)(C)C [tBu, reference compound]
